pIC50: −log10 of the molar value.
Experiments:
[1] = test system: pERK in GP2d cells (KRAS G12D); assay: Cell-based pERK HTRF assay; conditions: GP2d, 1 h, 60 min incubation
Protocol: Biological Example 3. Cell-Based pERK HTRF Assay
pERK assay (Perkin Elmer) was used to determine the effectiveness of compounds in disrupting KRAS G12D protein/effector signaling in cells.
On Day 1, cells (GP2d) were seeded into 96-well plates at 3×10^4 cells/well in 80 μl complete growth media (DMEM, 10% FBS).
On Day 2, cells were treated with compounds at 0.25% DMSO. The source plate was created with compounds diluted in media at 5-fold the final assay concentration. The compounds were run in a 9-point concentration curve starting at 1 μM, with a half-log dilution between concentrations. 20 μL was transferred onto the cell plates (final volume in wells was 100 μL). Plates were harvested after 60 min incubation by aspirating media and adding kit-supplied 1× supplemented lysis buffer to all wells (50 μl per well). Plates were then placed on a plate shaker and incubated at 850 rpm for an additional 30 min.
Antibody mixture solution is prepared by diluting aliquoted d2 and Eu Cryptate antibodies 1:20 in kit supplied detection buffer, mix the diluted antibodies solutions (1:1 v:v). Four μL of this solution is then added to a 384-well detection plate (Perkin Elmer; 6008230).
Samples were homogenized by pipetting up and down and then transferred (16 μL of cell lysates) from the 96-well cell culture plate to two wells of the HTRF 384-well detection plate containing the antibody solution. Plates were centrifuged (524 g for 1 min) and allowed to incubate between 4 and 24 h at room temperature. Maximum signal is reached after 4 h incubation time and remains stable over a period of 24 hours. Therefore, readings can be made between 4 and 24 h of incubation. Plates were centrifuged again (524 g for 1 min), then analyzed on the EnVision plate reader using the following settings: Excitation 320 nm, Bandwidth 75 nm; Emission 615 nm, Bandwidth 85 nm; Gain 100%; Flashes 100; Lag 60 μs.

[2] = molecular target: T1, Avi-KRAS G12D (1-169) GppNHp/RAF1 RBD-3×FLAG (52-151) (Homo sapiens, UniProt P01116, G12D); assay: HTRF Raf1-KRAS G12D-GppNHp disruption assay; assay type: biochemical; conditions: 1 h incubation
T1 construct: Avi-KRAS G12D (1-169) GppNHp
Procedure, shortened: (§1)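 HTRF read-out (320 nm excitation, 615 nm emission) after two 1 h room-temperature incubations, first with protein mix, then detection reagents. Ten-point dilution series starting at 100 μM; results given as % activity relative to DMSO at 100%.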

[3] = molecular target: T2, Avi-KRAS G12D/Q25A (1-169) GppNHp/3×FLAG-PI3KCA (157-299) (Homo sapiens, UniProt P01116, G12D/Q25A); assay: HTRF PI3KCA-KRAS G12D/Q25A-GppNHp disruption assay; assay type: biochemical; conditions: 1 h incubation
T2 construct: Avi-KRAS G12D/Q25A (1-169) GppNHp
Procedure, shortened: as §1

T2 sequence (P01116 1-169 isoform P01116-2 G12D/Q25A limits assumed): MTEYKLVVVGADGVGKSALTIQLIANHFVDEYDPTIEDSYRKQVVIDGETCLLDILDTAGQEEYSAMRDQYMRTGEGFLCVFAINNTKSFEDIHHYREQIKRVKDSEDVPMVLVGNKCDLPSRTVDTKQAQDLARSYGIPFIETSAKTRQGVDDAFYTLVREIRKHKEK
T1 sequence (P01116 1-169 isoform P01116-2 G12D limits assumed): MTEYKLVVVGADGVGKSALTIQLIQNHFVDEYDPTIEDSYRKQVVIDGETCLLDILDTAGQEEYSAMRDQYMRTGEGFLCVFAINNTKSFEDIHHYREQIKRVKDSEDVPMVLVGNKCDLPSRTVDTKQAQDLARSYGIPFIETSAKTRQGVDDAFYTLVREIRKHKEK

SMILES | pIC50 [1] | pIC50 [2] | pIC50 [3]
Nc1nc2c(-c3c(C(F)(F)F)cc4c(N5C[C@H]6CC[C@@H](C5)N6)nc(OC[C@@]56CCCN5C[C@H](F)C6)nc4c3Cl)ccc(F)c2s1 [Compound 256, 4-(4-((1R,5S)-3,8-diazabicyclo[3.2.1]octan-3-yl)-8-chloro-2-(((2R,7aS)-2-fluorotetrahydro-1H-pyrrolizin-7a(5H)-yl)methoxy)-6-(trifluoromethyl)quinazolin-7-yl)-7-fluorobenzo[d]thiazol-2-amine] | ≥ 7.00 | 6.00 to 7.00 | 6.00 to 7.00
N#Cc1cc2c(N3CC4CCC(C3)N4)nc(OC[C@@]34CCCN3C[C@H](F)C4)nc2c(F)c1-c1ccc(F)c2sc(N)nc12 [Compound 258] | ≥ 7.00 | 6.00 to 7.00 | 6.00 to 7.00
CO[C@H]1CN2CCC[C@@]2(COc2nc(N3CC4CCC(C3)N4)c3cc(C(F)(F)F)c(-c4ccc(F)c5sc(N)nc45)c(F)c3n2)C1 [Compound 261] | ≥ 7.00 | 6.00 to 7.00 | 6.00 to 7.00
Nc1nc2c(-c3c(C(F)(F)F)cc4c(NC5CC6CC[C@H](C5)N6)nc(OCC56CCCN5CCC6)nc4c3F)ccc(F)c2s1 (stereo partly drawn) [Compound 264] | < 6.00 | 6.00 to 7.00 | 6.00 to 7.00
CN(c1nc(OCC23CCCN2CCC3)nc2c(F)c(-c3ccc(F)c4sc(N)nc34)c(C(F)(F)F)cc12)C12CC(N)(C1)C2 [Compound 274] | 6.00 to 7.00 | 6.00 to 7.00 | 6.00 to 7.00
CN1C[C@H](F)C[C@H]1COc1nc(N2CC3CCC(C2)N3)c2cc(C(F)(F)F)c(-c3ccc(F)c4sc(N)nc34)c(F)c2n1 [Compound 275] | ≥ 7.00 | 5.00 to 6.00 | 5.00 to 6.00
C[C@@H]1C[C@@H](N(C)c2nc(OC[C@@]34CCCN3C[C@H](F)C4)nc3c(F)c(-c4ccc(F)c5sc(N)nc45)c(C(F)(F)F)cc23)CN1 [Compound 283] | 6.00 to 7.00 | 6.00 to 7.00 | 6.00 to 7.00
CO[C@H]1CN2CCC[C@]2(COc2nc(N3CC4CCC(C3)N4)c3cc(C(F)(F)F)c(-c4ccc(F)c5sc(N)nc45)c(F)c3n2)C1 [Compound 285] | ≥ 7.00 | 6.00 to 7.00 | 6.00 to 7.00
CN(c1nc(OC[C@@]23CCCN2C[C@H](F)C3)nc2c(F)c(-c3ccc(F)c4sc(N)nc34)c(C(F)(F)F)cc12)[C@@H]1CNCC1(C)C [Compound 293] | 6.00 to 7.00 | 6.00 to 7.00 | 6.00 to 7.00
CN(c1nc(OCC2(CN3CCOCC3)CC2)nc2c(F)c(-c3ccc(F)c4sc(N)nc34)c(C(F)(F)F)cc12)[C@@H]1CCNC1 [Compound 296] | ≥ 7.00 | 6.00 to 7.00 | 5.00 to 6.00
CN(c1nc(OCC2(CN3CC[C@@H](F)C3)CC2)nc2c(F)c(-c3ccc(F)c4sc(N)nc34)c(C(F)(F)F)cc12)[C@@H]1CCNC1 [Compound 297] | 6.00 to 7.00 | 6.00 to 7.00 | 5.00 to 6.00
Nc1nc2c(-c3c(C(F)(F)F)cc4c(N5CC6CCCC(C5)N6)nc(OC[C@@]56CCCN5C[C@H](F)C6)nc4c3F)ccc(F)c2s1 [Compound 299] | ≥ 7.00 | 6.00 to 7.00 | 6.00 to 7.00
Nc1nc2c(-c3c(C(F)(F)F)cc4c(N5CC6COCC(C5)N6)nc(OC[C@@]56CCCN5C[C@H](F)C6)nc4c3F)ccc(F)c2s1 [Compound 300] | 6.00 to 7.00 | 6.00 to 7.00 | 6.00 to 7.00
CN(c1nc(OCC23CCCN2CCC3)nc2c(F)c(-c3ccc(F)c4sc(N)nc34)c(C(F)(F)F)cc12)[C@H]1CC[C@H](N)CC1 [Compound 304] | < 6.00 | 5.00 to 6.00 | 5.00 to 6.00
C[C@H]1CNC[C@@H]1N(C)c1nc(OC[C@@]23CCCN2C[C@H](F)C3)nc2c(F)c(-c3ccc(F)c4sc(N)nc34)c(C(F)(F)F)cc12 [Compound 309] | 6.00 to 7.00 | 5.00 to 6.00 | 5.00 to 6.00
C[C@H]1C[C@@H](N(C)c2nc(OC[C@@]34CCCN3C[C@H](F)C4)nc3c(F)c(-c4ccc(F)c5sc(N)nc45)c(C(F)(F)F)cc23)CN1 [Compound 311] | ≥ 7.00 | 6.00 to 7.00 | 4.52 to 5.00

SMILES | pIC50 [1] | pIC50 [2] | pIC50 [3]
CN(c1nc(OC[C@@]23CCCN2C[C@H](F)C3)nc2c(F)c(-c3ccc(F)c4sc(N)nc34)c(C(F)(F)F)cc12)[C@H]1CNCC12CC2 [Compound 312] | 6.00 to 7.00 | 5.00 to 6.00 | 4.52 to 5.00
Nc1nc2c(-c3cc4nc(OC[C@@]56CCCN5C[C@H](F)C6)nc(N5CC6CCC(C5)N6)c4cc3C(F)(F)F)ccc(F)c2s1 [Compound 313] | ≥ 7.00 | 6.00 to 7.00 | 5.00 to 6.00
CN(c1nc(OC[C@@]23CCCN2C[C@H](F)C3)nc2c(Cl)c(-c3ccc(F)c4sc(N)nc34)c(C(F)(F)F)cc12)[C@@H]1CCNC1 [Compound 314] | 6.00 to 7.00 | 6.00 to 7.00 | 5.00 to 6.00
CCN1[C@@H]2CC[C@H]1CN(c1nc(OC[C@@]34CCCN3C[C@H](F)C4)nc3c(F)c(-c4ccc(F)c5sc(N)nc45)c(C(F)(F)F)cc13)C2 [Compound 315, 4-(4-((1R,5S)-8-ethyl-3,8-diazabicyclo[3.2.1]octan-3-yl)-8-fluoro-2-(((2R,7aS)-2-fluorotetrahydro-1H-pyrrolizin-7a(5H)-yl)methoxy)-6-(trifluoromethyl)quinazolin-7-yl)-7-fluorobenzo[d]thiazol-2-amine] | 6.00 to 7.00 | 5.00 to 6.00 | 4.52 to 5.00
CC(C)N1C2CCC1CN(c1nc(OC[C@@]34CCCN3C[C@H](F)C4)nc3c(F)c(-c4ccc(F)c5sc(N)nc45)c(C(F)(F)F)cc13)C2 [Compound 316] | 6.00 to 7.00 | 5.00 to 6.00 | 5.00 to 6.00
N#Cc1csc2c(F)ccc(-c3cc4nc(OC[C@@]56CCCN5C[C@H](F)C6)nc(N5CC6CCC(C5)N6)c4cc3C(F)(F)F)c12 [Compound 318] | 6.00 to 7.00 | 5.00 to 6.00 | 4.52 to 5.00
Nc1nc2c(-c3cc4nc(OC[C@@]56CCCN5C[C@H](F)C6)nc(N5CC6CCC(C5)N6)c4cc3C(F)(F)F)c(F)cc(F)c2s1 [Compound 319] | ≥ 7.00 | 6.00 to 7.00 | 6.00 to 7.00
N#Cc1c(N)sc2c(F)ccc(-c3c(OC(F)(F)F)cc4c(N5CC6CCC(C5)N6)nc(OC[C@@]56CCCN5C[C@H](F)C6)nc4c3F)c12 [Compound 320] | ≥ 7.00 | 6.00 to 7.00 | 6.00 to 7.00
N#Cc1c(N)sc2c(F)ccc(-c3cc4nc(OC[C@@]56CCCN5C[C@H](F)C6)nc(N5CC6CCC(C5)N6)c4cc3C(F)(F)F)c12 [Compound 323, 4-(4-(3,8-diazabicyclo[3.2.1]octan-3-yl)-2-(((2R,7aS)-2-fluorotetrahydro-1H-pyrrolizin-7a(5H)-yl)methoxy)-6-(trifluoromethyl)quinazolin-7-yl)-2-amino-7-fluorobenzo[b]thiophene-3-carbonitrile] | ≥ 7.00 | ≥ 7.00 | 6.00 to 7.00
Nc1nc2c(-c3c(C(F)(F)F)cc4c(N5CC6CCC(C5)N6CC5CC5)nc(OC[C@@]56CCCN5C[C@H](F)C6)nc4c3F)ccc(F)c2s1 [Compound 324] | 6.00 to 7.00 | 5.00 to 6.00 | 5.00 to 6.00
CN(c1nc(OC[C@@]23CCCN2C[C@H](F)C3)nc2c(F)c(-c3ccc(F)c4sc(N)nc34)c(C(F)(F)F)cc12)[C@H]1CNCC1(C)C [Compound 325] | < 6.00 | 5.00 to 6.00 | 5.00 to 6.00
Nc1nc2c(-c3c(C(F)(F)F)cc4c(N[C@H]5C[C@H]6CNC[C@H]6C5)nc(OCC56CCCN5CCC6)nc4c3F)ccc(F)c2s1 [Compound 326] | < 6.00 | 5.00 to 6.00 | 5.00 to 6.00
Nc1nc2c(-c3c(C(F)(F)F)cc4c(N5CCC6(CCNC6)C5)nc(OCC56CCCN5CCC6)nc4c3F)ccc(F)c2s1 (stereo not drawn) [Compound 327] | < 6.00 | 6.00 to 7.00 | 5.00 to 6.00
Nc1nc2c(-c3c(C(F)(F)F)cc4c(N[C@H]5CCC[C@H](N)C5)nc(OCC56CCCN5CCC6)nc4c3F)ccc(F)c2s1 [Compound 328] | < 6.00 | 5.00 to 6.00 | 5.00 to 6.00
Nc1nc2c(-c3c(C(F)(F)F)cc4c(N[C@H]5CCC[C@@H](N)C5)nc(OCC56CCCN5CCC6)nc4c3F)ccc(F)c2s1 [Compound 329] | < 6.00 | 4.52 to 5.00 | 4.52 to 5.00
N#Cc1c(N)sc2c(F)ccc(-c3c(C(F)(F)F)cc4c(N5CC6CCC(C5)N6)nc(OCC5(CN6CC[C@@H](F)C6)CC5)nc4c3F)c12 [Compound 330] | ≥ 7.00 | ≥ 7.00 | 6.00 to 7.00
